{"source": "patent US11918650B2", "about": "“Pharmaceutical composition comprising bispecific antibody constructs for improved storage and administration” (AMGEN INC., priority 2017, dated 2024)", "key": {"[1]": {"system": "CD19×CD3 bispecific antibody constructs", "assay": "Denaturation assay (guanidinium chloride) with fluorescence detection", "type": "physicochemical", "details": "2.5 hours at 25° C., pH 7; excitation 280 nm, emission 300 to 400 nm", "procedure": "FIG. 4: Denaturation diagram of CD19×CD3 bispecific antibody constructs at a concentration of 1 mg/ml in presence or absence of preservative benzyl alcohol as determined by fluorescence spectrometry […].\nImproved stability of a representative bispecific antibody construct of the present invention conferred by a preservative such as benzyl alcohol was further examined by a denaturation assay using fluorescence as detection means. Experimental conditions comprised guanidinium chloride as denaturant which concentration was plotted on the x-axis (see FIG. 4). Incubation time was 2.5 hours at 25° C. at near-physiologic pH 7. Fluorescence excitation was set to 280 nm and the emission scan was run from 300 to 400 nm. The percentile denaturated fraction was calculated from the fluoresces assay as standard in the art. The result can be seen in FIG. 4. The grey curve represents the formulation comprising benzyl alcohol, the black curve the formulation without preservative. […] This means that it takes more denaturant to unfold this region, i.e. the CD3 domain, which translates into improved stability conferred by the preservative."}, "[2]": {"system": "Candida albicans (ATCC 10231)", "assay": "Microbial challenge study in IV bags", "type": "cell-based", "details": "all three levels of BeOH (0.5%, 0.6%, 0.74%) in blinatumomab infusion solution; 20-25° C.", "procedure": "(§1) This example was a microbial challenge study in support of CD19×CD3 bispecific antibody construct drug product (DP) administered via an intravenous (IV) bag. The study was performed to evaluate the ability of different concentrations (0.5%-0.74%) of benzyl alcohol (BeOH) to reduce or eliminate microbial growth in IV bags holding blinatumomab infusion solution containing benzyl alcohol, CD19×CD3 bispecific antibody construct DP, and intravenous solution stabilizer (IVSS) kept at 20-25° C. for up to 14 days.\n(§2) The study was carried out to evaluate the growth of six different microorganisms in IV bags filled with 109 mL of CD19×CD3 bispecific antibody construct infusion solution containing benzyl alcohol (BeOH, at a final concentration of 0.0%, 0.5%, 0.6% or 0.74%), CD19×CD3 bispecific antibody construct DP, and IVSS. The prepared IV bags were held at 20-25° C. for up to 14 days.\n(§3) The bacteria and yeast selected for the study are representative of known human pathogens commonly isolated from nosocomial infections. These microorganisms include Candida albicans (ATCC 10231), Enterobacter cloacae (ATCC 13047), Escherichia coli (ATCC 8739), Micrococcus luteus (ATCC 4698), Pseudomonas aeruginosa (ATCC 9027), and Staphylococcus aureus (ATCC 6538).\n(§4) Test Articles: The test articles assessed in the study were blinatumomab infusion solution filled in IV bags containing 1.91 μg/mL conc. blinatumomab in a total volume of 109 mL/bag. The solution was made up by the addition of 2.2 mL IVSS, 16.8 mL of pooled reconstituted blinatumomab DP (210 μg), and a combined total volume of 90 mL of saline solution and saline solution with 0.9% benzyl alcohol (basaline). The four different levels of BeOH (0.0%, 0.5%, 0.6% and 0.74%) assessed in the study were achieved by adding different amounts of saline and basaline. For example, the bag with 0.0% BeOH (positive control) was prepared by adding 90 mL of saline, while the bag with 0.6% BeOH was prepared by adding 18 mL saline and 72 mL 0.9% bsaline, to the 2.2 mL IVSS and 16.8 mL blinatumomab DP. Refer to Appendix A for more details. Note that the illustration for 0.0% BeOH positive control in FIG. 1 (Schematic of IV Bag Preparation) of Appendix A of this report and in the same illustration in FIG. 4 of Appendix D inadvertently stated the final BeOH concentration to be 0.5%, instead of 0.0%. This is a typographic error and has no impact on the study outcome.\n(§5) A total of 24 CD19×CD3 bispecific antibody construct infusion solution filled IV bags were assessed to evaluate the effect of four levels of benzyl alcohol on the aforementioned six different microorganisms (6×4=24). An approximate 1 mL of inoculum containing <1×10^4 CFU microbes was inoculated through the injection port into each bag that yielded an initial microbial load at ˜1×10^2 CFU/mL. After inoculation, the sampling port on the bag was cleaned with sterile IPA and the bag was mixed briefly and then incubated at 20-25° C.\n(§6) Sampling and titration procedures: At each time point of 0-hour, 4-day, 8-day, 10-day, 12-day and 14 day, a 3 mL aliquot was collected from each assessed bag and titrated.\n(§7) Sample titration was performed by membrane filtration in duplicate of 1 mL aliquots for each timed sample. Additional dilutions were performed to obtain countable results (<300 CFU/plate)."}, "[3]": {"system": "Enterobacter cloacae (ATCC 13047)", "assay": "Microbial challenge study in IV bags", "type": "cell-based", "details": "20-25° C.", "procedure": "as §1, §2, §3, §4, §5, §6, §7"}, "[4]": {"system": "Escherichia coli (ATCC 8739)", "assay": "Microbial challenge study in IV bags", "type": "cell-based", "details": "20-25° C.", "procedure": "as §1, §2, §3, §4, §5, §6, §7"}, "[5]": {"system": "Micrococcus luteus (ATCC 4698)", "assay": "Microbial challenge study in IV bags", "type": "cell-based", "details": "20-25° C.", "procedure": "as §1, §2, §3, §4, §5, §6, §7"}, "[6]": {"system": "Pseudomonas aeruginosa (ATCC 9027)", "assay": "Microbial challenge study in IV bags", "type": "cell-based", "details": "20-25° C.", "procedure": "as §1, §2, §3, §4, §5, §6, §7"}, "[7]": {"system": "Staphylococcus aureus (ATCC 6538)", "assay": "Microbial challenge study in IV bags", "type": "cell-based", "details": "20-25° C.", "procedure": "as §1, §2, §3, §4, §5, §6, §7"}, "[8]": {"system": "CDR-H3 region (YISYW) of anti-CD3 domain", "assay": "Hydrogen-deuterium exchange (HDX) mass spectrometry, effects of citrate and benzyl alcohol", "type": "physicochemical", "details": "addition to Tris-phosphate pH 6.0, 50 mM citrate, 0.9% benzyl alcohol", "description": "Hydrogen-deuterium exchange (HDX) is a chemical reaction in which a covalently bonded hydrogen atom is replaced by a deuterium atom, or vice versa. It can be applied most easily to exchangeable protons and deuterons, where such a transformation occurs in the presence of a suitable deuterium source, without any catalyst. The method gives information about the solvent accessibility of various parts of the molecule, and thus the tertiary structure of the protein.\nModel anti-FAPα domain, isolated anti-CD3 domain (I2C, as typically used throughout all example bispecific antibody constructs), CD33×CD3 bispecific antibody construct and EGFRvIII×CD3 bispecific antibody construct were examined. For FAPα, anti-CD3 domain, and CD33×CD3 bispecific antibody construct, the experimental procedure was same. Firstly, the protein samples were dialyzed into Tris-phosphate buffer (35 mM Tris, 17.5 mM phosphate, pH 6.0) and (35 mM Tris, 17.5 mM phosphate, 50 mM citrate, pH 6.0), respectively. The protein concentration was adjusted to 0.3 mg/mL after dialysis. […] Thirdly, the HDX reaction was quenched after 10s, 1 min, 10 min, 1 hr, 4 hr, and 12 hr, and then the quenched protein samples were analyzed by mass spectrometry. […] Thirdly, the HDX reaction was quenched after 10s, 10 min, 2 hr, 8 hr, 16 hr, 24 hr, and then the quenched protein samples were analyzed by mass spectrometry. […]"}, "[9]": {"assay": "Frozen stability at −20° C. over 4 weeks, HMW species (FIG. 9, 10)", "type": "physicochemical", "details": "DLL3×CD3, pH 4"}, "[10]": {"system": "CD19×CD3 bispecific antibody construct", "assay": "Preservative compatibility, percent HMW species by SEC-HPLC at pH 4", "type": "physicochemical", "details": "CD19×CD3 bispecific antibody construct 0.8 mg/mL, 10 mM glutamate pH 4.0, 9% sucrose, 0.01% polysorbate 80; preservative conc. of Table 4; 25° C., 14 days", "procedure": "In order to investigate the compatibility of known preservatives with a representative bispecific antibody construct according to the present invention, CD19×CD3 bispecific antibody construct was formulated in the presence of respective known preservatives with parameters as set out in Table 4.\nThe chosen preservative concentrations reflected standard concentrations employed in the art. The respective formulations were stored at 25° C. for 14 days and examined on day 0, 1, 3, 7 and 14 by size exclusion chromatography (SEC-HPLC)."}, "[11]": {"details": "0.5%, 0.6% and 0.74% BeOH in blinatumomab infusion solution, inoculum 100 CFU/mL"}, "[12]": {"details": "all three assessed concentrations (0.5%, 0.6%, 0.74%), up to 14 days"}, "[13]": {"details": "0.5% or 0.6% BeOH in blinatumomab infusion solution"}, "[14]": {"details": "0.74% BeOH in blinatumomab infusion solution"}}, "data": [{"compound": "OCc1ccccc1", "note": "[benzyl alcohol]", "values": [{"measurement": "denaturation curve (denaturated fraction vs guanidinium chloride) with benzyl alcohol versus without preservative", "setting": "[1]", "value": "shift to the right in the bottom portion of the curve"}, {"measurement": "day on which challenged C. albicans was unrecoverable", "setting": "[2]", "value": 8, "unit": "days"}, {"measurement": "day from which no E. cloacae was recoverable", "setting": "[3]; [11]", "value": 10, "unit": "days"}, {"measurement": "growth of E. cloacae", "setting": "[3]; [12]", "value": "completely inhibited"}, {"measurement": "day from which no E. coli was recoverable", "setting": "[4]; [11]", "value": 10, "unit": "days"}, {"measurement": "growth of E. coli", "setting": "[4]; [12]", "value": "completely inhibited"}, {"measurement": "day on which challenged M. luteus was unrecoverable", "setting": "[5]; [13]", "value": 14, "unit": "days"}, {"measurement": "day on which challenged M. luteus was unrecoverable", "setting": "[5]; [14]", "value": 8, "unit": "days"}, {"measurement": "day from which no P. aeruginosa was recoverable", "setting": "[6]; [11]", "value": 4, "unit": "days"}, {"measurement": "growth of P. aeruginosa", "setting": "[6]; [12]", "value": "completely inhibited"}, {"measurement": "day on which challenged S. aureus inoculum became unrecoverable", "setting": "[7]; [13]", "value": 8, "unit": "days"}, {"measurement": "day on which challenged S. aureus inoculum became unrecoverable", "setting": "[7]; [14]", "value": 4, "unit": "days"}, {"measurement": "conformational dynamics of the region of residues 366-370 (YISYW) versus formulation of Tris-phosphate", "setting": "[8]", "value": "increases the conformational dynamics of this region"}, {"measurement": "benzyl alcohol concentration at which stabilizing effect on frozen stability is best", "setting": "[9]", "value": "above 0.1%"}]}, {"compound": "C[CH2][Hg][S]c1ccccc1C(=O)[O-].[Na+]", "note": "[Thimerosal, thimerosal]", "values": [{"measurement": "percent high molecular weight (HMW) species over time", "setting": "[10]", "value": "slight increase in HWM over time"}]}, {"compound": "COC(=O)c1ccc(O)cc1", "note": "[methylparabene, methylparaben]", "values": [{"measurement": "percent high molecular weight (HMW) species over time", "setting": "[10]", "value": "decrease in the percent high molecular weight (HMW) species over time"}]}, {"compound": "Oc1ccccc1", "note": "[phenol]", "values": [{"measurement": "percent high molecular weight (HMW) species over time", "setting": "[10]", "value": "HMW values overall remain constant"}]}, {"compound": "O=C(O)CC(O)(CC(=O)O)C(=O)O", "note": "[citrate]", "values": [{"measurement": "conformational dynamics of the region of residues 366-370 (YISYW) versus formulation of Tris-phosphate", "setting": "[8]", "value": "reduces the conformational dynamics of this region"}]}]}
